In patent publication US6579849B2, “Antibiotic peptides from bovine milk” (HaemoPep Pharma GmbH, priority 1998, dated 2003):
Read-outs that look alike come from different tables or passages of the source.

Key:
[1] = system: bacteria; experiment: Antibacterial / antimicrobial effect of comparison peptides; type: cell-based
[2] = system: S. carnosus; experiment: Preincubation experiment (determination of CFU); type: cell-based, Staphylococcus carnosus; details: incubated at 37° C. for 120 min, interpolated from FIG. 3
Description: (§1) Exponentially grown bacteria with a density corresponding to an A600 of 0.4 to 0.6, were initially diluted 1:10^5 in 10 mM phosphate buffer (Na—P, pH 7.2) or phosphate buffered saline (PBS, pH 7.4) and incubated at 37° C. for 120 min in Na—P or PBS supplemented with different concentrations of peptides. After this period the reaction mixtures were diluted 1:10 and 1:100 in the same buffer and plated on LB-Agar to determine the colony forming units (CFU). The plating were done in triplets. The colonies were counted with a colony counter (Darkfield, Quebec, Canada).
(§2) An example for the depletion of viable bacteria gives FIG. 2 showing that a time dependent killing of the bacteria during incubation occurs. The interpolation of the date gives the following order of sensitivity of the used strains B. subtilis>S. carnosus=S. epidermidis>Rhodotorula >>E. coli>Enterococcus faecium ATCC 35667. The concentration necessary to reduce the colony forming units (CFU) to 50% of the initial CFU ranges from 180 μg/ml (E. faecium) over 20 μg/ml (E. coli, S. carnosus, R. rubra) to 1 μg/ml for B. subtilis indicating a potent inhibitory effect of the used peptide.

[3] = Storage of lyophilized peptide; type: physicochemical; details: room temperature
[4] = system: R. rubra; experiment: Preincubation experiment (determination of CFU); type: cell-based, Rhodotorula rubra; details: incubated at 37° C. for 120 min, interpolated from FIG. 3
Description: as §1, §2

[5] = system: S. carnosus; type: cell-based, Staphylococcus carnosus
Description: To determine the minimal inhibitory concentration of casocidin-I under the influence of the medium strength or in the presence of bivalent cations, a dilution assay was performed in 96-well cell culture clusters. After diluting the peptide in 50 μl medium (tryptic soy broth, Sigma, Germany) with adjusted pH 7.2, ion concentrations or medium strength on one plate, the same amount of medium with appr. 2-4*10^3 bacteria in 50 μl medium were added to the diluted samples. The incubations were done overnight at 37° C. The minimal inhibitory concentration was manually read using a microscope.

[6] = system: E. coli; experiment: Preincubation experiment (determination of CFU); type: cell-based; details: incubated at 37° C. for 120 min, interpolated from FIG. 3
Description: as §1, §2

[7] = system: B. subtilis; experiment: Preincubation experiment (determination of CFU); type: cell-based; details: incubated at 37° C. for 120 min, interpolated from FIG. 3
Description: as §1, §2

[8] = system: Enterococcus faecium ATCC 35667; experiment: Preincubation experiment (determination of CFU); type: cell-based; details: E. faecium; incubated at 37° C. for 120 min; interpolated from FIG. 3
Description: as §1, §2

[9] = system: E. coli transformed with the plasmid pUC18; experiment: Membrane permeabilization, release of beta-galactosidase and beta-lactamase; type: cell-based; details: 37° C. for 30 min, FIG. 5
Description: The beta-galactosidase indicated the degree of the permeabilization of the inner membrane (IM) of E. coli. The permeabilization of the outer membrane was monitored by determination of released beta-Lactamase (plasmid coded) mainly present in the periplasmatic space.
To measure the relative release of beta-galactosidase a suspension of E. coli grown overnight in LB medium was washed once in phosphate buffer (10 mM, pH 7.0). Afterwards the bacteria were resuspended to a final density of app. 0.5 A600. Peptide fractions were lyophilized in 1.5 ml tubes in a speed vac concentrator and solved in 40 μl phosphate buffer. To the peptide solution a volume of 200 μl bacterial suspension was added and the incubation was performed at 37° C. for 30 min. As a control, to determine the maximum of the enzyme release, bacteria were disrupted by ultrasonic treatment (about 100 joules in 10 sec). […] The absorbance of the samples at 405 nm was measured and the increase of each absorbance was normalized to the sonified sample assuming enzymatic release of 100%.
To detect the release of beta-lactamase the supernatants of E. coli were prepared as described for the beta-galactosi-dase. […] The samples were incubated for 45 min at 37° C. in the dark and the absorbance was measured at a wavelength of 700 nm and the normalization was done with the results gained with sonified samples.

Row | Compound | antibacterial / antimicrobial effect [1] | concentration necessary to reduce the colony forming units (CFU) to 50% of the initial CFU [2] | potency when lyophilized, storage [3] | concentration necessary to reduce the colony forming units (CFU) to 50% of the initial CFU [4] | MIC ([5]; bivalent cation 2.5 mM Ca) | MIC ([5]; bivalent cation 2.5 mM Mn) | MIC ([5]; medium strength 1 (tryptic soy broth, pH 7.2)) | concentration necessary to reduce the colony forming units (CFU) to 50% of the initial CFU [6] | concentration necessary to reduce the colony forming units (CFU) to 50% of the initial CFU [7] | concentration necessary to reduce the colony forming units (CFU) to 50% of the initial CFU [8] | mechanism of action: release of intracellular enzymes beta-galactosidase and beta-lactamase [9]
1 | QRYQ | not sufficient to gain antimicrobial properties | – | – | – | – | – | – | – | – | – | –
2 | CC[C@H](C)[C@H](NC(=O)[C@H](CCCCN)NC(=O)[C@H](CCCCN)NC(=O)[C@H](CC(C)C)NC(=O)[C@H](Cc1ccccc1)NC(=O)[C@H](CC(N)=O)NC(=O)[C@H](CC(C)C)NC(=O)[C@H](CCCNC(=N)N)NC(=O)[C@H](CC(N)=O)NC(=O)[C@H](CCCCN)NC(=O)[C@H](CCC(=O)O)NC(=O)[C@H](CCC(=O)O)NC(=O)[C@H](CCC(=O)O)NC(=O)[C@@H](NC(=O)[C@H](CC(C)C)NC(=O)[C@H](CCCCN)NC(=O)[C@@H](NC(=O)[C@@H](N)CCCCN)[C@@H](C)O)[C@@H](C)O)C(=O)N[C@@H](CO)C(=O)N[C@@H](CCC(N)=O)C(=O)N[C@@H](CCCNC(=N)N)C(=O)N[C@@H](Cc1ccc(O)cc1)C(=O)N[C@@H](CCC(N)=O)C(=O)N[C@@H](CCCCN)C(=O)N[C@@H](Cc1ccccc1)C(=O)N[C@@H](C)C(=O)N[C@@H](CC(C)C)C(=O)N1CCC[C@H]1C(=O)N[C@@H](CCC(N)=O)C(=O)N[C@@H](Cc1ccc(O)cc1)C(=O)N[C@@H](CC(C)C)C(=O)N[C@@H](CCCCN)C(=O)N[C@H](C(=O)N[C@H](C(=O)N[C@@H](Cc1ccc(O)cc1)C(=O)N[C@@H](CCC(N)=O)C(=O)N[C@@H](Cc1c[nH]cn1)C(=O)N[C@@H](CCC(N)=O)C(=O)N[C@@H](CCCCN)C(=O)O)C(C)C)[C@@H](C)O [casocidin-I] | – | 20 µg/mL | keeps its potency when lyophilized | 20 µg/mL | no | no | no | 20 µg/mL | 1 µg/mL | 180 µg/mL | membrane permeabilizing effect
